16 molecules from ChEMBL document CHEMBL3217461, “Synthesis of tetrazoleisoxazoline hybrids as a new class of tubulin polymerization inhibitors” (Medchemcomm, 2012) can be followed below.

In one assay the test system is MDA-MB-231. The assay can be described thus: Cytotoxicity against human MDA-MB-231 cells after 48 hrs by MTT assay. Format: functional, cell-based. As to conditions: MDA-MB-231, 48 h. Background: Formazan colour is commonly taken as a measure of viable cells.
Assay [1] concerns A549. The assay can be described thus: Cell cycle arrest in human A549 cells assessed as accumulation at S phase at 2 uM after 24 hrs using propidium iodide staining by flow cytometer analysis (reference value: 5.43%). Format: functional. (In general: A flow cytometer gives signals particle by particle.)
Assay [2] has as its system A549. The assay is described as follows: Cell cycle arrest in human A549 cells assessed as accumulation at G1 phase at 2 uM after 24 hrs using propidium iodide staining by flow cytometer analysis (reference value: 80.03%). The class given is functional.
In assay [3] the test system is A549. The assay can be described thus: Cell cycle arrest in human A549 cells assessed as accumulation at G0 phase at 2 uM after 24 hrs using propidium iodide staining by flow cytometer analysis (reference value: 0.56%). The class given is functional.
For assay [4], the system named is A549. The assay can be described thus: Cytotoxicity against human A549 cells after 48 hrs by MTT assay. The class given is functional, cell-based. To be noted: A549, 48 h.
Assay [5] concerns A549. The assay is described as follows: Cell cycle arrest in human A549 cells assessed as accumulation at G2/M phase at 2 uM after 24 hrs using propidium iodide staining by flow cytometer analysis (reference value: 13.98%). Format: functional.
For another assay, the target named is Tubulin (Bos taurus) (UniProt Q6B856+Q862L2+Q862F3). The assay can be described thus: Displacement of [3H]-colchicine from purified bovine brain tubulin at 5 uM after 1 hr by scintillation proximity assay. For orientation: In a radioligand displacement assay an active substance lowers the binding of a labelled ligand.
For assay [6], the target named is T1, Tubulin (Homo sapiens) (UniProt P68371+Q9H4B7+P0DPH7+P68366+Q13509+Q71U36+P04350+Q3ZCM7+P07437+P68363+Q9BQE3+Q6PEY2+Q13885+Q9BVA1+Q9BUF5). The assay can be described thus: Inhibition of tubulin (unknown origin) at 2 uM after 30 to 60 mins by HTS assay. Format: protein-complex assay.
Assay [7] deals with T1, Tubulin (Homo sapiens). The assay can be described thus: Inhibition of tubulin polymerization in human A549 cells assessed as microtubule network at 2 uM after 24 hrs by immunofluorescence microscopy analysis. Format: cell-based.
Assay [8] concerns the target T1, Tubulin (Homo sapiens). The assay can be described thus: Inhibition of gamma-tubulin in human A549 cells assessed as decrease in protein organization pattern at 2 uM after 24 hrs by immunofluorescence analysis. Format: cell-based.
Assay [9] has as its system A549. The assay is described as follows: Induction of apoptosis in human A549 cells assessed as increase of caspase-3 expression at 2 uM after 2 hrs by Western blot analysis. Format: functional, cell-based.

Activity calls are given as the source filed them. The calls are words filed in the database; no cut-off is given here.

One may read the IC50 as the concentration that gives 50% inhibition. A high value points to weaker potency. One may read the inhibition as the drop in the measured response relative to a control, in per cent.

On to `COc1ccc(OC)c(C2=NOC(COc3ccc(-c4nnnn4-c4cc(OC)c(OC)c(OC)c4)cc3N)C2)c1` (stereo unspecified), for which the figures for the half-maximal inhibitory concentration (IC50) in the assay on MDA-MB-231 and in the assay with A549 [4] were 3500 nM and 1930 nM, respectively. Further, the Activity in the assay on A549 [1] came out at 5.02%; with A549 [2], 75.39%; in the assay on A549 [3], 0.95%; in the assay on A549 [5], 18.63%.

In the case of `COc1cc(-n2nnnc2-c2ccc(OCC3CC(c4cccc(Cl)c4)=NO3)c(N)c2)cc(OC)c1OC` (stereo unspecified), the IC50 turned out to be 2180 nM in the assay on MDA-MB-231 and 1340 nM in the assay on A549 [4]. Further, the Activity in the assay with A549 [1] came to 5.53%; with A549 [2], 49.34%; in the assay with A549 [3] it was 6.83%; in the assay with A549 [5], 38.3%.

As for `COc1cc(-n2nnnc2-c2ccc(OCC3CC(c4ccc(C(F)(F)F)cc4)=NO3)c(N)c2)cc(OC)c1OC` (stereo unspecified), the values for the IC50 in the assay on MDA-MB-231 and in the assay on A549 [4] were 1750 nM and 1220 nM, respectively. For the same molecule, the Activity in the assay with A549 [1] came to 4.17%; with A549 [2] it was 43.08%; in the assay on A549 [3], 7.14%; in the assay on A549 [5] it was 45.61%.

For `COc1cc(-n2nnnc2-c2ccc(OCC3CC(c4ccc(OC)c(OC)c4OC)=NO3)c(N)c2)cc(OC)c1OC` (stereo unspecified), the concentration for half-maximal inhibition (IC50) in the assay with MDA-MB-231 was 3540 nM; in the assay on A549 [4] it was 2030 nM. Further, the Activity in the assay on A549 [1] is recorded as 5.4%; in the assay with A549 [2], 73.18%; with A549 [3], 1.08%; with A549 [5], 20.34%.

For the molecule `COc1cc(C2=NOC(COc3ccc(-c4nnnn4-c4cc(OC)c(OC)c(OC)c4)cc3N)C2)cc(OC)c1OC` (stereo unspecified), the results for the IC50 with MDA-MB-231 and in the assay with A549 [4] were 3230 nM and 2060 nM, respectively. Also, the Activity with A549 [1] turned out to be 4.92%; with A549 [2], 72.62%; with A549 [3] it was 1.74%; in the assay with A549 [5] it was 20.72%.

In the case of `CC(=O)O[C@H]1C(=O)[C@@]2(C)[C@H]([C@H](OC(=O)c3ccccc3)[C@]3(O)C[C@H](OC(=O)[C@H](O)[C@@H](NC(=O)c4ccccc4)c4ccccc4)C(C)=C1C3(C)C)[C@]1(OC(C)=O)CO[C@@H]1C[C@@H]2O`, the inhibition at Tubulin (Bos taurus) was found to be 20%.

`COc1ccc(C2=NOC(COc3ccc(-c4nnnn4-c4cc(OC)c(OC)c(OC)c4)cc3N)C2)cc1N` (stereo unspecified): the IC50 amounted to 3000 nM in the assay on MDA-MB-231 and 2080 nM in the assay with A549 [4]. The Activity with A549 [1] amounted to 5.42%; in the assay on A549 [2], 75.87%; in the assay with A549 [3], 1.68%; in the assay on A549 [5] it was 17.03%.

Take `COc1ccc(/C=C\c2cc(OC)c(OC)c(OC)c2)cc1O` [COMBRETASTATIN A4]: the IC50 is 100 nM in the assay on MDA-MB-231 and 550 nM in the assay on A549 [4]. Moreover, the Activity in the assay on A549 [1] amounted to 6.03%; with A549 [2] it was 7.47%; with A549 [3] it was 1.79%; in the assay on A549 [5], 84.71%.

In the case of `COc1ccc(C2=NOC(COc3ccc(-c4nnnn4-c4cc(OC)c(OC)c(OC)c4)cc3N)C2)cc1O` (stereo unspecified), the IC50 in the assay with MDA-MB-231 came out at 3380 nM; in the assay with A549 [4], 2130 nM. The Activity stood at 6.27% in the assay on A549 [1], 69.87% with A549 [2], 2.05% in the assay with A549 [3] and 21.81% in the assay on A549 [5].

In the case of `COc1ccc(C2=NOC(COc3ccc(-c4nnnn4-c4cc(OC)c(OC)c(OC)c4)cc3N)C2)cc1OC` (stereo unspecified), the IC50 in the assay on MDA-MB-231 came out at 3570 nM; with A549 [4], 2520 nM. Besides, the Activity turned out to be 5.31% with A549 [1], 73.08% in the assay on A549 [2], 1.44% with A549 [3] and 20.18% in the assay on A549 [5].

Turning to `COc1cc(C2=NOC(c3cc(OC)c(OC)c(OC)c3)C2)ccc1O` (stereo unspecified), the IC50 turned out to be 3600 nM with MDA-MB-231 and 2600 nM with A549 [4]. Moreover, the Activity in the assay on A549 [1] amounted to 4.25%; in the assay on A549 [2], 65.98%; with A549 [3], 1.42%; in the assay on A549 [5], 27.86%.

Regarding `COc1ccc(F)c(C2=NOC(COc3ccc(-c4nnnn4-c4cc(OC)c(OC)c(OC)c4)cc3N)C2)c1` (stereo unspecified), the figures for the IC50 with MDA-MB-231 and in the assay on A549 [4] were 2830 nM and 1510 nM, respectively. Besides, the inhibition entry on Tubulin (Homo sapiens) [6], at Tubulin (Homo sapiens) [7] and at Tubulin (Homo sapiens) [8] was “Active” throughout. Moreover, the Activity worked out at 5.93% in the assay on A549 [1], 10.23% in the assay with A549 [2], 2.55% in the assay on A549 [3] and 81.29% with A549 [5]. Besides, the result with A549 [9] was Active. Further, on Tubulin (Bos taurus), the inhibition worked out at 90%.

With `COc1ccc(-c2nnnn2-c2cc(OC)c(OC)c(OC)c2)cc1N`, the 50% inhibitory concentration (IC50) is 3170 nM with MDA-MB-231 and 2630 nM with A549 [4]. The Activity with A549 [1] is 3.47%; in the assay on A549 [2] it was 72.31%; in the assay on A549 [3], 1.05%; in the assay on A549 [5], 23.1%.

As for `COc1ccc(C2=NOC(COc3ccc(-c4nnnn4-c4cc(OC)c(OC)c(OC)c4)cc3N)C2)cc1[N+](=O)[O-]` (stereo unspecified), the IC50 with MDA-MB-231 worked out at 3560 nM; in the assay with A549 [4] it was 2220 nM. Besides, the Activity in the assay with A549 [1] stood at 5.29%; in the assay with A549 [2], 74.79%; in the assay on A549 [3], 1.84%; with A549 [5], 18.08%.

On to `COc1cc(C2=NOC(COc3ccc(-c4nnnn4-c4cc(OC)c(OC)c(OC)c4)cc3N)C2)ccc1O` (stereo unspecified), for which the figures for the IC50 in the assay with MDA-MB-231 and with A549 [4] were 3620 nM and 2010 nM, respectively. The Activity in the assay on A549 [1] is 6.41%; in the assay with A549 [2], 70.71%; in the assay with A549 [3] it was 1.65%; with A549 [5], 21.18%.

In the case of `COc1cc(-n2nnnc2-c2ccc(OCC3CC(c4ccccc4F)=NO3)c(N)c2)cc(OC)c1OC` (stereo unspecified), the IC50 in the assay with MDA-MB-231 turned out to be 2400 nM; with A549 [4] it was 1490 nM. The inhibition result at Tubulin (Homo sapiens) [6], at Tubulin (Homo sapiens) [7] and on Tubulin (Homo sapiens) [8] was “Active” throughout. Besides, the Activity in the assay on A549 [1] is recorded as 6.04%; in the assay with A549 [2], 11.34%; in the assay with A549 [3], 3.19%; in the assay with A549 [5], 79.42%. Also, the result in the assay with A549 [9] was Active. Besides, the inhibition on Tubulin (Bos taurus) came out at 92%.
